Legend:
Assay type in all cases: functional
[1] = Evaluated for substrate specificity of betaine uptake in salt-stressed Sinorhizobium meliloti. compound to substrate ratio 100:1
Sinorhizobium meliloti [2] = test: Tested for effect on doubling time of growth of Sinorhizobium meliloti 102F34 in Lactate aspartate(LAS) minimal medium (with addition of NaCl)
Sinorhizobium meliloti [3] = test: Maximal attenuance reached in the stationary phase was reported against Sinorhizobium meliloti 102F34 in Lactate aspartate(LAS) minimal medium (with addition of NaCl)
[4] = Evaluated for substrate specificity of betaine uptake in salt-stressed Sinorhizobium meliloti. compound to substrate ratio 10:1
Sinorhizobium meliloti [5] = test: Maximal attenuance reached in the stationary phase was reported against Sinorhizobium meliloti 102F34 in Lactate aspartate(LAS) minimal medium (without addition of NaCl)
[6] = Evaluated for substrate specificity of betaine uptake in salt-stressed Sinorhizobium meliloti. compound to substrate ratio 1:1; parameters: unit not given here
Sinorhizobium meliloti [7] = test: Tested for effect on doubling time of growth of Sinorhizobium meliloti 102F34 in Lactate aspartate(LAS) minimal medium (without addition of NaCl)

SMILES | Substrate specificity of betaine uptake [1] | DT (Sinorhizobium meliloti [2]) [h] | Dmax (Sinorhizobium meliloti [3]) | Betaine uptake (substrate specificity) [4] | Dmax (Sinorhizobium meliloti [5]) | Ratio [6] | DT (Sinorhizobium meliloti [7]) [h]
CC[N+](C)(CC)CC(=O)O.[Cl-] | 57 | 13 | 2 | 10 | 1.6 | 4 | 9
C[S+](C)CC(=O)O.[Cl-] | 98 | 32 | 0.5 | 90 | 0.5 | 52 | 35
CC[N+](CC)(CC)CC(=O)O.[Cl-] | 27 | 18 | 0.9 | 4 | 1.8 | 0 | 7.9
CC[N+](C)(C)CC(=O)O.[Cl-] | 96 | 11 | 2 | 79 | 0.7 | 35 | 35
C[N+](C)(C)CC(=O)O [BETAINE] | 99 | 7 | 2.1 | 94 | 2 | 80 | 5.5
CCCC[N+](C)(C)CC(=O)O.[Cl-] | 23 | 20 | 0.9 | 10 | 1.9 | 1 | 6.4
C[N+]1(CC(=O)O)CCOCC1.[Cl-] | 43 | 13 | 1.9 | 7 | 1 | 1 | 28
C[N+]1(CC(=O)O)CCCC1.[Cl-] | 95 | 11 | 2.1 | 61 | 0.6 | 20 | 45
CC(C)[N+](C)(C)CC(=O)O.[Cl-] | 45 | 20 | 0.9 | 4 | 1.8 | 0 | 6.9

Source: ChEMBL document CHEMBL1131697, “Toxicity and osmoprotective activities of analogues of glycine betaine obtained by solid phase organic synthesis towards Sinorhizobium meliloti” (1999)
